{"source": "patent US4174396A", "about": "“7,10-Dimethyl-5,9-imino-4,5,8,9-tetrahydro-cyclooct[b]thiophenes and a process for obtaining it” (Laboratories Made, S.A., priority 1978, dated 1979)", "key": {"[1]": {"system": "white Swiss I.C.R. mice", "experiment": "Chemical analgesia, acetic acid writhing technique", "format": "in vivo", "conditions": "for No. of writhes x ± S.E.M: 25 mg/kg intraperitoneally, 0.25 ml of 1% acetic acid after 30 minutes, writhes noted 20 minutes after acetic acid, control 130 ± 7.764", "method": "The analgesic effect has been studied in white Swiss I.C.R. mice, with the acetic acid writhing technique. Batches of 10 mice were made.\nThe products under study were administered intraperitoneally, and after 30 minutes 0.25 ml of 1% acetic acid were injected intraperitoneally. A batch of control animals received only the acetic acid. The number of writhes in each mouse were noted 20 minutes after the acetic acid was administered."}, "[2]": {"system": "albino Swiss I.C.R. mice", "experiment": "Thermal analgesia, 55° C. hot-plate technique", "format": "in vivo", "conditions": "for Jumping time in sec. x ± S.E.M.: 50 mg/kg intraperitoneally, 30 minutes after dosing, 55° C. hot-plate, average ± standard error of the mean, control 64 ± 7.911", "method": "The thermal analgesic effect has been studied in albino Swiss I.C.R. mice. The 55° C. hot-plate technique has been used. Batches of 10 mice were made.\nThe products under study were administered intraperitoneally. After 30 minutes the mice were placed on the hot-plate and note was made of the time it took them to jump, in seconds. Batches were made of control animals injected only with distilled water."}, "[3]": {"experiment": "Acute toxicity (LD50, intraperitoneal, Litchfield-Wilcoxen)", "format": "in vivo, albino Swiss I.C.R. mice", "conditions": "mouse, in vivo, ip, mice, both sexes, deaths noted 48 hours after treatment", "method": "(§1) Acute toxicity studies have been made in albino Swiss I.C.R. mice, of both sexes, of a weight of 30±2 g, kept without food for 24 hours prior to the experiment. Temperature and relative humidity of the atmosphere were kept constant. The products were administered intraperitoneally, the number of deaths having been noted 48 hours after treatment. The lethal dose (LD50) was calculated by the Litchfield-Wilcoxen test."}, "[4]": {"system": "albino Swiss I.C.R. mice", "experiment": "Acute toxicity (LD50, intraperitoneal, Litchfield-Wilcoxen)", "format": "in vivo", "conditions": "both sexes, deaths noted 48 hours after treatment", "method": "as §1"}}, "data": [{"smiles": "CC1=CC2Cc3ccsc3C(C1)N2C", "note": "(stereo not drawn) [I, 7,10-dimethyl-5,9-imino-4,5,8,9-tetrahydrocyclooct[b]thiophene]", "values": [{"measurement": "No. of writhes x ± S.E.M", "setting": "[1]", "result": "85.3 ± 13.915"}, {"measurement": "Signif. of differences, Dextropropox.", "setting": "[1]; No. of writhes, 25 mg/kg, versus dextropropoxyphene", "result": "N.S."}, {"measurement": "chemical analgesic activity (in words)", "setting": "[1]; acetic acid writhing, compared with dextropropoxyphene", "result": "shows the same analgesic activity as dextropropoxyphene"}, {"measurement": "Jumping time in sec. x ± S.E.M.", "setting": "[2]", "result": "114.2 ± 11.168", "unit": "s"}, {"measurement": "thermal analgesic activity (in words)", "setting": "[2]; hot-plate, compared with dextropropoxyphene", "result": "shows analgesic activity, but of less potency than that of dextropropoxyphene"}, {"measurement": "LD50 at 48 h", "setting": "[3]", "result": 159, "unit": "mg/kg"}]}, {"smiles": "CCC(=O)O[C@](Cc1ccccc1)(c1ccccc1)[C@H](C)CN(C)C", "note": "[Dextropropoxyphene, reference compound]", "values": [{"measurement": "No. of writhes x ± S.E.M", "setting": "[1]", "result": "68.4 ± 5.258"}, {"measurement": "Jumping time in sec. x ± S.E.M.", "setting": "[2]", "result": "164 ± 7.319", "unit": "s"}, {"measurement": "LD50", "setting": "[4]", "result": 140, "unit": "mg/kg"}]}]}
